Patent US20240343754A1, “7-SUBSTITUTED 7-DEAZAADENINE-CONTAINING 2',3'-CYCLIC DINUCLEOTIDES” (USTAV ORGANICKE CHEMIE A BIOCHEMIE AV CR, V. V. I., priority 2021, published 2024)
Read-outs that look alike come from different tables or passages of the source.

Legend:
[1] = system: Peripheral blood mononuclear cells (PBMC); test: PBMC assay: induction of cytokines INFα and INFγ; format: cell-based; details: Homo sapiens, PBMCs, 16 h incubation, mean from three different PBMC donors
[2] = Cytotoxic effect on PBMCs (CellTiter-Glo Luminescent Cell Viability Assay); format: cell-based; details: human, 16 h incubation, mean from three different PBMC donors
Procedure: Briefly, buffy coats were obtained from the Institute of Hematology and Blood Transfusion (Prague, Czech Republic). Informed written consent was signed by each volunteer. Isolation of PBMCs was performed on Ficoll density gradient centrifugation (Ficoll Paque Plus, GE Healthcare, USA) in SepMate tubes (SepMate PBMC Isolation Tubes, Stemcell Technologies, Canada). Obtained PBMCs were washed using PBS with 2 mM EDTA, and then seeded onto 96-well U-shape plates at density 500,000 cells per well in RPMI 1640 media with 10% (v/v) heat inactivated FBS. Serially diluted CDNs were added to cells and cells were incubated for 16 h (37° C., 5% CO2). After incubation, medium was collected to determine levels of INFα and INFγ using ProcartaPlex Assays and MAGPIX System (Merck, Germany) according to the manufacturer's instructions. Cytotoxic effect of CDNs on PBMCs was determined using CellTiter-Glo® Luminescent Cell Viability Assay (Promega Corporation, USA) according to manufacturer's instruction.

wt hSTING = wt hSTING (Homo sapiens, UniProt Q86WV6); test: Standard 293T reporter cell-based assay (IRF-3 dependent firefly luciferase reporter)
Chain of wt hSTING (Q86WV6 whole entry H232R): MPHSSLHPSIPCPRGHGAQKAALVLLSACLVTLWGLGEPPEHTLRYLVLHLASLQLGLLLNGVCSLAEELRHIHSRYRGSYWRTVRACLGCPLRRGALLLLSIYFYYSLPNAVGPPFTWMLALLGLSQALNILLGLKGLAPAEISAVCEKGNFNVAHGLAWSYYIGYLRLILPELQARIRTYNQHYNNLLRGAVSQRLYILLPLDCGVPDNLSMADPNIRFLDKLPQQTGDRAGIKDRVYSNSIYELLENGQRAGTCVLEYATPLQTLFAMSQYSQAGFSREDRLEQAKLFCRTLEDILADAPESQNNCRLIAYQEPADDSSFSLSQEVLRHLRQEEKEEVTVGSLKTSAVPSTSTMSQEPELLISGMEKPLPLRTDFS
Procedure: Briefly, the day before testing cells were seeded onto 96-well white plates at density 250,000 cells per cm^2 in DMEM High glucose medium supplemented with 10% (v/v) heat inactivated fetal bovine albumin (FBS). The next day medium was removed, and cell were incubated for 7 h (37° C., 5% CO2) with serial dilution of compounds in medium. After incubation, Bright-Glo Luciferase Assay System reagent was added to cells and luminescence readout was performed on SPARK instrument (Tecan, Austria). EC50 values were determined using in software Prism (GraphPad, USA).

[3] = read-out: PBMC assay EC50 INF α
[4] = read-out: PBMC assay EC50 INF γ
[5] = read-out: Standard assay EC50, 293T reporter cells expressing wt hSTING, 7 h incubation, mean of three independent experiments in triplicates, SD <50%

EC50 (wt hSTING; [5]) [µM]	EC50 (wt hSTING) [µM]	Structure (SMILES)	EC50 [1, 3] [µM]	EC50 [1, 4] [µM]	CC50 at 16 h [2] [µM]
		Cc1cn([C@@H]2O[C@@H]3COP(=O)(O)O[C@@H]4[C@H](O)[C@@H](COP(=O)(O)O[C@H]3[C@H]2O)O[C@H]4n2cnc3c(=O)[nH]c(N)nc32)c2ncnc(N)c12 [Compound 1a, 2-amino-9-((5R,7R,8R,12aR,14R,15R,15aS,16R)-14-(4-amino-5-methyl-7H-pyrrolo[2,3-d]pyrimidin-7-yl)-2,10,15,16-tetrahydroxy-2,10-dioxidooctahydro-12H-5,8-methanofuro[3,2-l][1,3,6,9,11]pentaoxa[2,10]diphosphacyclotetradecin-7-yl)-1,9-dihydro-6H-purin-6-one]	30.6	7.8	> 200
40.7		Nc1nc2c(ncn2[C@@H]2O[C@@H]3COP(=O)(O)O[C@H]4[C@@H](O)[C@H](n5cc(-c6ccccc6)c6c(N)ncnc65)O[C@@H]4COP(=O)(O)O[C@@H]2[C@@H]3O)c(=O)[nH]1 [Compound 1b, 2-amino-9-((5R,7R,8R,12aR,14R,15R,15aS,16R)-14-(4-amino-5-phenyl-7H-pyrrolo[2,3-d]pyrimidin-7-yl)-2,10,15,16-tetrahydroxy-2,10-dioxidooctahydro-12H-5,8-methanofuro[3,2-l][1,3,6,9,11]pentaoxa[2,10]diphosphacyclotetradecin-7-yl)-1,9-dihydro-6H-purin-6-one]			> 200
7.63		Nc1nc2c(ncn2[C@@H]2O[C@@H]3COP(=O)(O)O[C@H]4[C@@H](O)[C@H](n5cc(-c6ccc7ccccc7c6)c6c(N)ncnc65)O[C@@H]4COP(=O)(O)O[C@@H]2[C@@H]3O)c(=O)[nH]1 [Compound 1c, 2-amino-9-((5R,7R,8R,12aR,14R,15R,15aS,16R)-14-(4-amino-5-(naphthalen-2-yl)-7H-pyrrolo[2,3-d]pyrimidin-7-yl)-2,10,15,16-tetrahydroxy-2,10-dioxidooctahydro-12H-5,8-methanofuro[3,2-l][1,3,6,9,11]pentaoxa[2,10]diphosphacyclotetradecin-7-yl)-1,9-dihydro-6H-purin-6-one]			> 200
42.5		Nc1nc2c(ncn2[C@@H]2O[C@@H]3COP(=O)(O)O[C@H]4[C@@H](O)[C@H](n5cc(-c6cccc7ccccc67)c6c(N)ncnc65)O[C@@H]4COP(=O)(O)O[C@@H]2[C@@H]3O)c(=O)[nH]1 [Compound 1d, 2-amino-9-((5R,7R,8R,12aR,14R,15R,15aS,16R)-14-(4-amino-5-(naphthalen-1-yl)-7H-pyrrolo[2,3-d]pyrimidin-7-yl)-2,10,15,16-tetrahydroxy-2,10-dioxidooctahydro-12H-5,8-methanofuro[3,2-l][1,3,6,9,11]pentaoxa[2,10]diphosphacyclotetradecin-7-yl)-1,9-dihydro-6H-purin-6-one]			> 200
2.95		Nc1nc2c(ncn2[C@@H]2O[C@@H]3COP(=O)(O)O[C@H]4[C@@H](O)[C@H](n5cc(-c6ccc(-c7ccccc7)cc6)c6c(N)ncnc65)O[C@@H]4COP(=O)(O)O[C@@H]2[C@@H]3O)c(=O)[nH]1 [Compound 1f, 9-((5R,7R,8R,12aR,14R,15R,15aS,16R)-14-(5-([1,1′-biphenyl]-4-yl)-4-amino-7H-pyrrolo[2,3-d]pyrimidin-7-yl)-2,10,15,16-tetrahydroxy-2,10-dioxidooctahydro-12H-5,8-methanofuro[3,2-l][1,3,6,9,11]pentaoxa[2,10]diphosphacyclotetradecin-7-yl)-2-amino-1,9-dihydro-6H-purin-6-one]	7.4	2	> 200
3.06		Nc1nc2c(ncn2[C@@H]2O[C@@H]3COP(=O)(O)O[C@H]4[C@@H](O)[C@H](n5cc(-c6ccc(-c7ccc8ccccc8c7)cc6)c6c(N)ncnc65)O[C@@H]4COP(=O)(O)O[C@@H]2[C@@H]3O)c(=O)[nH]1 [Compound 1g, 2-amino-9-((5R,7R,8R,12aR,14R,15R,15aS,16R)-14-(4-amino-5-(4-(naphthalen-2-yl)phenyl)-7H-pyrrolo[2,3-d]pyrimidin-7-yl)-2,10,15,16-tetrahydroxy-2,10-dioxidooctahydro-12H-5,8-methanofuro[3,2-l][1,3,6,9,11]pentaoxa[2,10]diphosphacyclotetradecin-7-yl)-1,9-dihydro-6H-purin-6-one]	5.1	1.8	> 200
		Nc1nc2c(ncn2[C@@H]2O[C@@H]3COP(=O)(O)O[C@H]4[C@@H](O)[C@H](n5cc(-c6ccco6)c6c(N)ncnc65)O[C@@H]4COP(=O)(O)O[C@@H]2[C@@H]3O)c(=O)[nH]1 [Compound 1i, 2-amino-9-((5R,7R,8R,12aR,14R,15R,15aS,16R)-14-(4-amino-5-(furan-2-yl)-7H-pyrrolo[2,3-d]pyrimidin-7-yl)-2,10,15,16-tetrahydroxy-2,10-dioxidooctahydro-12H-5,8-methanofuro[3,2-l][1,3,6,9,11]pentaoxa[2,10]diphosphacyclotetradecin-7-yl)-1,9-dihydro-6H-purin-6-one]	2.8	2.24	> 200
		Nc1nc2c(ncn2[C@@H]2O[C@@H]3COP(=O)(O)O[C@H]4[C@@H](O)[C@H](n5cc(-c6cccs6)c6c(N)ncnc65)O[C@@H]4COP(=O)(O)O[C@@H]2[C@@H]3O)c(=O)[nH]1 [Compound 1j, 2-amino-9-((5R,7R,8R,12aR,14R,15R,15aS,16R)-14-(4-amino-5-(thiophen-2-yl)-7H-pyrrolo[2,3-d]pyrimidin-7-yl)-2,10,15,16-tetrahydroxy-2,10-dioxidooctahydro-12H-5,8-methanofuro[3,2-l][1,3,6,9,11]pentaoxa[2,10]diphosphacyclotetradecin-7-yl)-1,9-dihydro-6H-purin-6-one]	2.88	2.6	> 200
19.1		Nc1nc2c(ncn2[C@@H]2O[C@@H]3COP(=O)(O)O[C@H]4[C@@H](O)[C@H](n5cc(-c6cccc7c6oc6ccccc67)c6c(N)ncnc65)O[C@@H]4COP(=O)(O)O[C@@H]2[C@@H]3O)c(=O)[nH]1 [Compound 1m, 2-amino-9-((5R,7R,8R,12aR,14R,15R,15aS,16R)-14-(4-amino-5-(dibenzo[b,d]furan-4-yl)-7H-pyrrolo[2,3-d]pyrimidin-7-yl)-2,10,15,16-tetrahydroxy-2,10-dioxidooctahydro-12H-5,8-methanofuro[3,2-l][1,3,6,9,11]pentaoxa[2,10]diphosphacyclotetradecin-7-yl)-1,9-dihydro-6H-purin-6-one]			> 200
		Nc1nc2c(ncn2[C@@H]2O[C@@H]3COP(=O)(O)O[C@H]4[C@@H](O)[C@H](n5ccc6c(N)ncnc65)O[C@@H]4COP(=O)(O)O[C@@H]2[C@@H]3O)c(=O)[nH]1 [Compound 1n, 2-amino-9-((5R,7R,8R,12aR,14R,15R,15aS,16R)-14-(4-amino-7H-pyrrolo[2,3-d]pyrimidin-7-yl)-2,10,15,16-tetrahydroxy-2,10-dioxidooctahydro-12H-5,8-methanofuro[3,2-l][1,3,6,9,11]pentaoxa[2,10]diphosphacyclotetradecin-7-yl)-1,9-dihydro-6H-urin-6-one, reference compound]	54.5	67.6	> 200
	109	C#Cc1cn([C@@H]2O[C@@H]3COP(=O)(O)O[C@@H]4[C@H](O)[C@@H](OCP(=O)(O)O[C@H]3[C@H]2O)O[C@H]4n2cnc3c(=O)[nH]c(N)nc32)c2ncnc(N)c12 [Compound 53, 2-amino-9-((5R,7R,8R,12aR,14R,15R,15aS,16S)-14-(4-amino-5-ethynyl-7H-pyrrolo[2,3-d]pyrimidin-7-yl)-2,10,15,16-tetrahydroxy-2,10-dioxidooctahydro-5,8-methanofuro[3,2-l][1,3,6,8,11]pentaoxa[2,10]diphosphacyclotetradecin-7-yl)-1,9-dihydro-6H-purin-6-one, reference compound]			

Structure (SMILES)	EC50 (wt hSTING; [5]) [µM]	EC50 (wt hSTING) [µM]	EC50 [1, 3] [µM]	EC50 [1, 4] [µM]	CC50 at 16 h [2] [µM]
Nc1nc2c(ncn2[C@@H]2O[C@@H]3COP(=O)(O)O[C@H]4[C@@H](O)[C@H](n5cc(-c6cc7ccccc7c7ccccc67)c6c(N)ncnc65)O[C@@H]4COP(=O)(O)O[C@@H]2[C@@H]3O)c(=O)[nH]1 [Compound 1e, 2-amino-9-((5R,7R,8R,12aR,14R,15R,15aS,16R)-14-(4-amino-5-(phenanthren-9-yl)-7H-pyrrolo[2,3-d]pyrimidin-7-yl)-2,10,15,16-tetrahydroxy-2,10-dioxidooctahydro-12H-5,8-methanofuro[3,2-l][1,3,6,9,11]pentaoxa[2,10]diphosphacyclotetradecin-7-yl)-1,9-dihydro-6H-purin-6-one]	65.5				> 200
